Measurements published in ChEMBL document CHEMBL1201862, “PubChem BioAssay data set” (2004).
Activity calls are given as the source filed them.

How the values were obtained:
[1] = target: DNA (cytosine-5)-methyltransferase 1 (Homo sapiens, UniProt P26358); assay: inhibition of DNA methylation by DNMT1 – biochemical, fluorescent molecular beacon, confirmation (AID 602386); format: functional
[2] = target: T1, Histone-lysine N-methyltransferase NSD2 (Homo sapiens, UniProt O96028); format: biochemical
T1 sequence (O96028 whole entry): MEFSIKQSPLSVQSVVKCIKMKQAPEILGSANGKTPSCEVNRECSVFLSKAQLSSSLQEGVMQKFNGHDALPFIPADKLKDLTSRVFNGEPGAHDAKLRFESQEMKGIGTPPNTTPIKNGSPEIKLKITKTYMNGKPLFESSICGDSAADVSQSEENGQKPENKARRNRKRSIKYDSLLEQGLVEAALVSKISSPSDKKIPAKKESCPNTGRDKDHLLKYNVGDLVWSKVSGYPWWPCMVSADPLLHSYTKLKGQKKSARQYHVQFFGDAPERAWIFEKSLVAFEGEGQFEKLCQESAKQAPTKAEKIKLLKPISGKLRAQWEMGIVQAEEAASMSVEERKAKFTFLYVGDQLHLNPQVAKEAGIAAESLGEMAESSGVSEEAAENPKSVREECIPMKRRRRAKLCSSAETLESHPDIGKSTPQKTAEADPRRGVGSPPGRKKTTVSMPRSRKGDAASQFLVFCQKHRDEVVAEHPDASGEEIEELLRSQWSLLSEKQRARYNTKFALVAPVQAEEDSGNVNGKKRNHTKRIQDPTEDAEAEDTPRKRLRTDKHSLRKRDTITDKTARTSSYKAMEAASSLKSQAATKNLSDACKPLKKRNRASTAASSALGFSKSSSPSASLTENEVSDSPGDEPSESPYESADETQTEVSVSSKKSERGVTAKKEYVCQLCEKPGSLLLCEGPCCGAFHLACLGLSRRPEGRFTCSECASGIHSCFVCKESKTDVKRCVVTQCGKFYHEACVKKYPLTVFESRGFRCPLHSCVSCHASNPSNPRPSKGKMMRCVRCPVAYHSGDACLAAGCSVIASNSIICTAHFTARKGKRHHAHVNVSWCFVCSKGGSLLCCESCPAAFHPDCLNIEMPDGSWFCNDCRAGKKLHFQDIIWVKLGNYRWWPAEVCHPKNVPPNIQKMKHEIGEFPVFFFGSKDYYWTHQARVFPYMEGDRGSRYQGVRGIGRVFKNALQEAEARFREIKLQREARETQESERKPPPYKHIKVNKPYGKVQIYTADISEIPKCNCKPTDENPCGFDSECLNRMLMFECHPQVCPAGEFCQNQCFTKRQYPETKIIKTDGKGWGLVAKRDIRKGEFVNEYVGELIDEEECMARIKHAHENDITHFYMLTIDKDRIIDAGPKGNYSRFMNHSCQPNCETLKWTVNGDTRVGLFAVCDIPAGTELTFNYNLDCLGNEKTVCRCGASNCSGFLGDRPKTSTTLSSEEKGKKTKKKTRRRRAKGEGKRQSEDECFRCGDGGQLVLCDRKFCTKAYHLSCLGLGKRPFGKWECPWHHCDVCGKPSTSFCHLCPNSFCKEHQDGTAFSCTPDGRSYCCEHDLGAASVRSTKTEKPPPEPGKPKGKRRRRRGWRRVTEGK

[3] = target: Adenosylmethionine-8-amino-7-oxononanoate aminotransferase (Mycobacterium tuberculosis, UniProt P9WQ81); assay: Mycobacterium tuberculosis BioA enzyme inhibitor Measured in Biochemical System Using Plate Reader - 2163-02_Inhibitor_Dose_CherryPick_Activity.; format: functional, Mycobacterium tuberculosis UT205
[4] = target: T2, DNA repair and recombination protein RAD54-like (Homo sapiens, UniProt Q92698); assay: RAD54 Holliday junction migration blockers – biochemical, fluorescence, cherry-picked samples, dose series, confirmation (AID 651657); format: functional
T2 sequence (Q92698 whole entry): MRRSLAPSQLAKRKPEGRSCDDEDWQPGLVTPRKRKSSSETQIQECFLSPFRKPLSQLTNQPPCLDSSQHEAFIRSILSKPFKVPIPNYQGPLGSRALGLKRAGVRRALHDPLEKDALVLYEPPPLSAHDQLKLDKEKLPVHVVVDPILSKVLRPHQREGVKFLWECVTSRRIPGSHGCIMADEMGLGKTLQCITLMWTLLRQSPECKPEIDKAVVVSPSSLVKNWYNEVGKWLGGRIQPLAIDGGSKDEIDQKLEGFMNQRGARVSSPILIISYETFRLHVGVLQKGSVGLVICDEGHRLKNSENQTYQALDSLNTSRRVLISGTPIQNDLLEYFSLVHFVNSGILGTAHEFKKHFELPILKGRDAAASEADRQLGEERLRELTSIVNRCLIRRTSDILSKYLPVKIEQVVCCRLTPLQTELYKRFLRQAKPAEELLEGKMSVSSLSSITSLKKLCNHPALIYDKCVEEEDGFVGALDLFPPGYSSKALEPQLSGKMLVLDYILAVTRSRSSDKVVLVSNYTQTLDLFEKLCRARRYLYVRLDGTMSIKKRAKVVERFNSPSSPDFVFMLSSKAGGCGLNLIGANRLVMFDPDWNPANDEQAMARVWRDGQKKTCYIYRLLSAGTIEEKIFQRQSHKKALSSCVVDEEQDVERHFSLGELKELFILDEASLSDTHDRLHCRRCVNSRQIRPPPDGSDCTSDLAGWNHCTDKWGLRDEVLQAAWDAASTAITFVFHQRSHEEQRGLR

[5] = target: T3, Endoribonuclease toxin MazF (Escherichia coli K-12, UniProt P0AE70); assay: activation of MazEF endoribonuclease cleavage – biochemical, fluorescence, single-stranded RNA substrate, uHTS hits, dose response (AID 588481); format: functional
T3 sequence (P0AE70 whole entry): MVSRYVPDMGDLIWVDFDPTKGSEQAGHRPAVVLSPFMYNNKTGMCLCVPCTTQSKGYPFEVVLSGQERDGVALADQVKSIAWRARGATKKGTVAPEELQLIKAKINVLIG

[6] = target: T3, Endoribonuclease toxin MazF; assay: substrate-only fluorescence increase artefacts – biochemical, single-stranded RNase substrate, counter-screen for MazEF activator project, dose response (AID 588502); format: functional
Protein skinhead-1 = target: T4, Protein skinhead-1 (Caenorhabditis elegans, UniProt P34707); format: functional
T4 sequence (P34707 whole entry): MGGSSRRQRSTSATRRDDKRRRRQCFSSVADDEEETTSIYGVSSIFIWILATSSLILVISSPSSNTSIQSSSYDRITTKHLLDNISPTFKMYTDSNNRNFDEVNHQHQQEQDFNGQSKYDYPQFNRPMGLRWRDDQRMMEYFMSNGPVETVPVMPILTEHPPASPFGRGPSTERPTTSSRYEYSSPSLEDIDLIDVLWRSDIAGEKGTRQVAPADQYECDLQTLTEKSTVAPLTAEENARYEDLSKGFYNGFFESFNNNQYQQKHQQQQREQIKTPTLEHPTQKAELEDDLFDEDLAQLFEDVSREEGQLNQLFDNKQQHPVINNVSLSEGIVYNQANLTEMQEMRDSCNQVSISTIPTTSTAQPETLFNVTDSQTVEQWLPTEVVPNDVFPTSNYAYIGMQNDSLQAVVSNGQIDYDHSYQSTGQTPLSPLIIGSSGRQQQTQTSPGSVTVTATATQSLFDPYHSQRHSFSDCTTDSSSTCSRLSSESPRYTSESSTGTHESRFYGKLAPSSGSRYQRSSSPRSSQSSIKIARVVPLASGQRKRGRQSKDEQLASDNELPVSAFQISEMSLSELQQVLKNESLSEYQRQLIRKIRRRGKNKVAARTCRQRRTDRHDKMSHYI

[7] = target: T5, High affinity choline transporter 1 (Homo sapiens, UniProt Q9GZV3); assay: human choline transporter blockers, potency – cell-based, 5-point CRC, membrane potential dye, dose response (AID 504840); format: functional
T5 sequence (Q9GZV3 whole entry): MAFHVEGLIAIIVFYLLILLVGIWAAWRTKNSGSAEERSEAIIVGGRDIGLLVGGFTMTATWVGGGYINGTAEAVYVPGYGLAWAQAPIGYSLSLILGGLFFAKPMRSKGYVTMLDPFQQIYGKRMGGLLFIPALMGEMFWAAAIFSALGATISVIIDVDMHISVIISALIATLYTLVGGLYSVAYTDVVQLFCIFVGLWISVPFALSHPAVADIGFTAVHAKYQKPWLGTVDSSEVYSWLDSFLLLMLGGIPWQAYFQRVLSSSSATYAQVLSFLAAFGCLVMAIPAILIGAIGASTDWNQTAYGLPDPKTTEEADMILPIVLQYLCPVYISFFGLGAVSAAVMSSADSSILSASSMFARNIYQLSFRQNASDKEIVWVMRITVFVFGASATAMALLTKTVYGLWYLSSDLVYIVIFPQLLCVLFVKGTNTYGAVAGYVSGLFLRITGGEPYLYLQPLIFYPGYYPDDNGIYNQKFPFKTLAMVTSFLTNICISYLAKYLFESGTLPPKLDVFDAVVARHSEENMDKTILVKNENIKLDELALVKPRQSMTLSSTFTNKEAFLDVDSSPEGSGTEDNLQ

[8] = target: T5, High affinity choline transporter 1; assay: human choline transporter blockers, potency – cell-based, 10-point CRC, membrane potential dye, dose response (AID 588401); format: functional;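 note: membrane potential dye fluorescence of choline-evoked depolarization via CHT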
[9] = Counterscreen for inhibitors of Trypanosoma brucei methionyl tRNA synthetase (MetRS): Luminescence-based cell-based high throughput dose response assay to identify compounds that are cytotoxic to Jurkat human T lymphocyte cells.; format: functional
[10] = target: 26S proteasome non-ATPase regulatory subunit 14 (Homo sapiens, UniProt O00487); assay: inhibition of proteasome subunit RPN11 – biochemical, fluorescence polarization, uHTS hits, confirmation (AID 602368); format: functional
[11] = target: 72 kDa type IV collagenase (Homo sapiens, UniProt P08253); assay: Dose Response validation of uHTS RPN11 inhibitor hits using a MMP-2 Fluorescence assay.; format: functional
Prothrombin = Prothrombin (Bos taurus, UniProt P00735); assay: thrombin protease inhibitors – biochemical, fluorescence polarization, uHTS hits, dose response (AID 602369); format: functional
[12] = target: Protein disulfide-isomerase (Homo sapiens, UniProt P07237); assay: inhibition of PDI-driven insulin aggregation – biochemical, turbidity, absorbance, cherry-picked samples, dose response (AID 602350); format: functional
[13] = target: Hepatocyte nuclear factor 4-alpha (Homo sapiens, UniProt P41235); format: functional, cell-based;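 note: biochemical luminescence-based dose-response counterscreen measuring inhibition of HNF4 dimerization, run alongside a screen for blockers of ABHD5–perilipin-5 interaction; split luciferase complementation of HNF4 fusion proteins in cell lysate measuring dimerization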
Hepatocyte nuclear factor 4-alpha, sequence (P41235 whole entry, the tested form may be a part): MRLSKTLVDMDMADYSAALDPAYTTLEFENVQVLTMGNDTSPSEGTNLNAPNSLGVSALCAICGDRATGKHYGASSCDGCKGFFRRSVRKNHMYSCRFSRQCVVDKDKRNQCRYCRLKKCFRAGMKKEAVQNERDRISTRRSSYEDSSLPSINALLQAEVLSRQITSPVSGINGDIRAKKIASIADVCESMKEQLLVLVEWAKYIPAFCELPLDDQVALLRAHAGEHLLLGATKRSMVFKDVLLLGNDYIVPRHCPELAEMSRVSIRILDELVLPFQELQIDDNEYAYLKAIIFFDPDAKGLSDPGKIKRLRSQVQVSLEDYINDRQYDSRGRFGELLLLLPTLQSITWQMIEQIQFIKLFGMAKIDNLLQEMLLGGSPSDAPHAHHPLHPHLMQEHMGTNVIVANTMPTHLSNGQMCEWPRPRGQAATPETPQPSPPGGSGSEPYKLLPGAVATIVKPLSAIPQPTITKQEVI

72 kDa type IV collagenase, sequence (P08253 whole entry): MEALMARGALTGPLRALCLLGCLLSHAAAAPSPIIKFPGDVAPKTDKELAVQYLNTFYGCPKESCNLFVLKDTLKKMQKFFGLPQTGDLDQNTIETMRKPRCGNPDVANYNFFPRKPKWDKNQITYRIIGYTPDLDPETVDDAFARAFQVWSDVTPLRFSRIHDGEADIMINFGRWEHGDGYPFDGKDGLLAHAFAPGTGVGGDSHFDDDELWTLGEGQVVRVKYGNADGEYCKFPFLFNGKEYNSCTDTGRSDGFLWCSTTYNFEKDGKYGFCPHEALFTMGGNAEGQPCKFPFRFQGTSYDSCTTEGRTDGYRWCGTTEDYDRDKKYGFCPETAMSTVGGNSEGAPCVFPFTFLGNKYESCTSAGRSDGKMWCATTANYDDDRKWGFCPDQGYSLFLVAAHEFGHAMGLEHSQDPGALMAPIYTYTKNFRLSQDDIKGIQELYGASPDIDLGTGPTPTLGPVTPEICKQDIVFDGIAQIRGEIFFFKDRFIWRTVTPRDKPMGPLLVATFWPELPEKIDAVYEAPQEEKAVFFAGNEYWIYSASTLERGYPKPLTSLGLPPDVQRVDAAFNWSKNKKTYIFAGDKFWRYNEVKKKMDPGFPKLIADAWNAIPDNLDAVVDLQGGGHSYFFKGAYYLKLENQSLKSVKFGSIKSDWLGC
Adenosylmethionine-8-amino-7-oxononanoate aminotransferase, sequence (P9WQ81 whole entry): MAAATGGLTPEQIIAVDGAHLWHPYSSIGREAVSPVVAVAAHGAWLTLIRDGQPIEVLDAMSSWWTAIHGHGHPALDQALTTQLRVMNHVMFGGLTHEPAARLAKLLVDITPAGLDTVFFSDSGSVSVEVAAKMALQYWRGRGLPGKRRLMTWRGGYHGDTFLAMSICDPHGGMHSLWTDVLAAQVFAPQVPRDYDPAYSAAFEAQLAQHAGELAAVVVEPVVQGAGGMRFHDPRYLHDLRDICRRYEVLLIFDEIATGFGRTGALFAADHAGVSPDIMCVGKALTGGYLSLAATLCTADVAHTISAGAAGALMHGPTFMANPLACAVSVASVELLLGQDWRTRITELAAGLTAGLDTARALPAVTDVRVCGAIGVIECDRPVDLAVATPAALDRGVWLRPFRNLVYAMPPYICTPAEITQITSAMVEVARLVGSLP
26S proteasome non-ATPase regulatory subunit 14, sequence (O00487 whole entry): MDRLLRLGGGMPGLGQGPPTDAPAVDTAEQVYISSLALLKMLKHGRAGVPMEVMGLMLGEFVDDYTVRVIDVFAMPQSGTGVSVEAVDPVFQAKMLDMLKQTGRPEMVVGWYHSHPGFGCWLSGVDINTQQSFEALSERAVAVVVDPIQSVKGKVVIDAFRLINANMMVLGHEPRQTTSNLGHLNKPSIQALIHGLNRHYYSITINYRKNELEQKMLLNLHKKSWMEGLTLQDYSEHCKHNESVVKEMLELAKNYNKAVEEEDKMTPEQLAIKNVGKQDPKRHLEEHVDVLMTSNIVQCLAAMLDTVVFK
DNA (cytosine-5)-methyltransferase 1, sequence (P26358 whole entry): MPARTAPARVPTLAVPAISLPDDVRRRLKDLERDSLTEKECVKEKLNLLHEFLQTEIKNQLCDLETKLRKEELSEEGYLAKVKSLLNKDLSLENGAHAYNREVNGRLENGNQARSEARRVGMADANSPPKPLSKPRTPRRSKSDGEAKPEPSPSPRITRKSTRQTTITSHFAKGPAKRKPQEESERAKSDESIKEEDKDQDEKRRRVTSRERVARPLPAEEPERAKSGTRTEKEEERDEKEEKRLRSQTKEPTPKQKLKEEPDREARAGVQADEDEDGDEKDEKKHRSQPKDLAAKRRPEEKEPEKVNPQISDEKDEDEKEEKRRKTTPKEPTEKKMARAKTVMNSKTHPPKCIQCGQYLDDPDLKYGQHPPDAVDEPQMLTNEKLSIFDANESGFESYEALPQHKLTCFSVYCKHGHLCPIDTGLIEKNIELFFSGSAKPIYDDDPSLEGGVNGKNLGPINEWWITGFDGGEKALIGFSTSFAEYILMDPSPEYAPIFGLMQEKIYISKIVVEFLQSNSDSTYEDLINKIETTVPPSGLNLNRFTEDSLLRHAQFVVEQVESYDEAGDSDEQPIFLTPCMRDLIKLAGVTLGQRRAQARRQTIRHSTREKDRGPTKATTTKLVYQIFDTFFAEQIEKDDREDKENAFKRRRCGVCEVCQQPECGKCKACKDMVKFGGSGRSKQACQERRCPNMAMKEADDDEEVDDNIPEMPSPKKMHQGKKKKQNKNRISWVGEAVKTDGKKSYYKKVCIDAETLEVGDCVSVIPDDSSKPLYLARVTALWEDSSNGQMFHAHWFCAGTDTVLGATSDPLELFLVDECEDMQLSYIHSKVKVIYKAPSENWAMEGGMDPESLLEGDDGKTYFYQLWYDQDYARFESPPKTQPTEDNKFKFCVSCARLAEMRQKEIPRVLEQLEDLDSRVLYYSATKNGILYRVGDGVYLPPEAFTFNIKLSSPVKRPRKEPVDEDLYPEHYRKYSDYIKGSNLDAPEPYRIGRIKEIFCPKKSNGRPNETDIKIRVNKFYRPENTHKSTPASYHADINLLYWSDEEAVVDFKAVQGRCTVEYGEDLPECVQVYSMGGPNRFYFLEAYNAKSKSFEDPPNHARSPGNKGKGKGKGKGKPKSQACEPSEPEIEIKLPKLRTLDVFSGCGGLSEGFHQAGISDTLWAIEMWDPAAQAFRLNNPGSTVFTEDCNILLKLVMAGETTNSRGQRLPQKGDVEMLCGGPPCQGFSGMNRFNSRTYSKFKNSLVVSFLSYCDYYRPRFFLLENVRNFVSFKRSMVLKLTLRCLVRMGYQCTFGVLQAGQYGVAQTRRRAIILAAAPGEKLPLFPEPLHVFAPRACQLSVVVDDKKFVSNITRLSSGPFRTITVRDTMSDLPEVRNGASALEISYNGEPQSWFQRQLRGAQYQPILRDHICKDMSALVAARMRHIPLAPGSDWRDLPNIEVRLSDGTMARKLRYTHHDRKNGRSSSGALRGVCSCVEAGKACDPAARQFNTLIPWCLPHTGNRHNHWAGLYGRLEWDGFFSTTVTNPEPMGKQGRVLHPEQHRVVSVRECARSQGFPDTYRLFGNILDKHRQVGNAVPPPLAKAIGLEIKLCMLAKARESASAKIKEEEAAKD
Protein disulfide-isomerase, sequence (P07237 whole entry, the tested form may be a part): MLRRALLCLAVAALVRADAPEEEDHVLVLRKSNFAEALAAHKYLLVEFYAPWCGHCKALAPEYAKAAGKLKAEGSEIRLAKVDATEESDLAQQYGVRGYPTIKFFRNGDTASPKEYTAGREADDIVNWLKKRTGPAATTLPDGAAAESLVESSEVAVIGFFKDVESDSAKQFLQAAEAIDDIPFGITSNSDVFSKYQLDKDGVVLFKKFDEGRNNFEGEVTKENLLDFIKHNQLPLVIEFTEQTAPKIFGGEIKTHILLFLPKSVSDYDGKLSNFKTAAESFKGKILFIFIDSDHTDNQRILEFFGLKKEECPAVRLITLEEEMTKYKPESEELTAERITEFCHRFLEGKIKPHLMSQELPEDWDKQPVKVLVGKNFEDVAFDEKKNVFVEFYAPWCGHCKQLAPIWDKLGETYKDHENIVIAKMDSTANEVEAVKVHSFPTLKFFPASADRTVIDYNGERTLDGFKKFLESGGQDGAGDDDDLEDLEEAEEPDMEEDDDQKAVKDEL

CC1=C/C(=C\c2ccc(Br)o2)C(=O)O1
IC50 [1]: 4.99 µM (active) | AC50 [2]: 4.71 µM (active)

CN1CCN(c2[nH]cnc3c4cc(F)ccc4nc2-3)CC1
AC50 [3]: 2.8 µM (active) | AC50 [4]: 28.8 µM (active)

COC(=O)CSc1nc2cc(C)cc(C)c2cc1C#N
EC50 [5]: > 99 µM (inactive) | EC50 [6]: > 99 µM (inactive) | IC50 (Protein skinhead-1): > 100 µM (inactive)

COc1ccc(C2=NN(c3ccc(C(=O)O)cc3)C(c3ccc(OC)c(OC)c3)C2)cc1 (centres undefined)
IC50 [7]: 4.79 µM (active) | IC50 [8]: 3.55 µM (active)

Cc1cccc(NS(=O)(=O)c2ccc3[nH]c(-c4ccccc4)nc3c2)c1C
IC50 [9]: 25.1 µM (inactive)

O=C(OCCCOc1ccc(F)cc1)c1ccc(O)cc1O
IC50 [7]: 3.59 µM (active) | IC50 [8]: 4.47 µM (active)

O=C(Nc1nc(-c2ccc(F)c(F)c2)cs1)Nc1ccc(F)cc1F
IC50 [10]: 30.3 µM (active) | IC50 [11]: > 100 µM (inactive) | IC50 (Prothrombin): 78.3 µM (active)

N=C1CCCN1CC(=O)c1ccc(Cl)cc1
IC50 [7]: 6.01 µM (active) | IC50 [8]: 2.7 µM (active)

COc1cccc(/C=C(/CC(=O)Nc2ccc(N3CCOCC3)cc2)c2nc3ccccc3s2)c1
IC50 [10]: 12.6 µM (active) | IC50 [11]: > 100 µM (inactive) | IC50 (Prothrombin): 25 µM (active)

CC(=O)OC[C@H]1O[C@@H](Oc2cc(O)cc3oc(-c4ccc(O)cc4)cc(=O)c23)[C@H](O[C@@H]2O[C@@H](C)[C@H](O)[C@@H](O)[C@H]2O)[C@@H](O)[C@@H]1O
AC50 [12]: 19.5 µM (active)

C=C1C(=O)O[C@H]2C[C@H]1[C@@H](OC(C)=O)C/C(C)=C/CC/C(C)=C\CC[C@]2(C)O
IC50 [13]: 3.21 µM (active)

Cc1cc(C(=O)NC2CC(C)(C)Cc3c2cnn3-c2cccc(F)c2)nn1C (centres undefined)
AC50 [3]: 2.72 µM (active)

Cc1cccc(C)c1NC(=O)C(c1ccc(C#N)cc1)n1c(=O)c(-c2ccco2)nc2ccccc21 (centres undefined)
IC50 [13]: 1.86 µM (active)
